These are literature values, as cited in patent publication US20100047365A1, “WHEAT-GERM OIL CONCENTRATE, A METHOD FOR THE PRODUCTION THEREOF, A METHOD FOR PRODUCING WHEAT-GERM OIL, AND A MEDICINAL AND PROPHYLACTIC COMPOSITION BASED THEREON FOR RESTORATION OF DISORDERS IN SEXUAL FUNCTIONS” (OTKRYTOE AKTSIONERNOE, priority 2006, published 2010).

The conditions of this series: relative ranking of tocopherol forms.

As to tocopherol, the antioxidant activity is given as 0.6.
Take `Cc1cc(O)c(C)c2c1O[C@](C)(CCC[C@H](C)CCC[C@H](C)CCCC(C)C)CC2` [β-tocopherol]: the antioxidant activity is 0.45.
As to `Cc1c(C)c2c(c(C)c1O)CC[C@@](C)(CCC[C@H](C)CCC[C@H](C)CCCC(C)C)O2` [α-tocopherol], the antioxidant activity is 0.3.
As for `Cc1cc(O)cc2c1O[C@](C)(CCC[C@H](C)CCC[C@H](C)CCCC(C)C)CC2` [δ-tocopherol], the antioxidant activity is reported as 1.0.
